In the test the test system is TNFR2. As to the kind of experiment: TNFR2 expression-inducing activity against neuroblasts (neuro-2a, fluorescent antibody technique). It is filed as cell-based, mouse. The conditions noted are these: retinoic acid-differentiated neuro-2a cells, peptide 5 μM, two days incubation, control group set as 1. Here is the method:
With respect to each sample obtained in Example 1, the TNFR2 expression-inducing activity was tested against neuroblasts. The control group was supplied with no peptides. The test details are described below.
As the cells under test, a cell line (neuro-2a) established from a commercial mouse neuroblastoma was used. The cells were cultured beforehand in a DMEM medium (i.e., a Dulbecco MEM (DMEM medium, a Gibco product) containing 10% fetal bovine serum (FBS, a Gibco product), 2 mM of L-glutamine, 50 unit/mL of penicillin, and 50 μg/mL of streptomycin), and the number of cells per well in a 96-hole(well) plate was adjusted to approximately 5×10^3. The volume of the medium here was 100 μL/well. […]
Subsequently, the stock solution of one of the samples was added to the wells for each sample group to a peptide concentration in each well of 5 μM. […] After samples (synthetic peptides) were added as described above and continuously incubated further for two days, the expression/induction of TNFR1 and TNFR2 was evaluated according to the fluorescent antibody technique in the same manner as Example 2.
With the level of TNFR1 expression (i.e. fluorescence intensity) of the control group set as 1, relative values are shown. […] With the level of TNFR2 expression (i.e. fluorescence intensity) of the control group set as 1, relative values are shown.

Where no end group is shown, it is not given here.

In the case of “KKRTLRKNDRKKR (KKRTLRKNDRKKR-NH2; listed as Homo sapiens) [Sample 17, NoLS of human LIMK2]”, the “TNFR2 expression level (relative fluorescence intensity)” value was “at least 1.9”.

Source of the values: patent US9365618B2, “Synthetic peptide that induces expression of TNF receptor 2 and use thereof” (TOAGOSEI CO. LTD., priority 2011, dated 2016).
